Measured values: PubChem BioAssay (NCI)
Values joined by “and” are separate entries in the source; they are usually repeats but may differ in a detail not shown here. Equal entries are not always repeated.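 These data come from cells grown in 96-well plates and exposed to compound for 48 hours at five concentrations. Abbreviation: GI50, concentration required for 50% inhibition of growth. TGI: total growth inhibition.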

Experiments:
Experiment in all cases: NCI-60 cell line screen, 48 h
[1] = system: HS 578T breast
[2] = system: A498 renal
[3] = system: OVCAR-5 ovarian
[4] = system: SNB-19 CNS
[5] = system: A549 NSCLC
[6] = system: RPMI-8226 leukemia
[7] = system: CCRF-CEM leukemia
[8] = system: NCI-H522 lung
[9] = system: SK-OV-3 ovarian
[10] = system: RXF 393 renal

SMILES | GI50 [1] [nM] | TGI [1] [µM] | GI50 [2] | TGI [2] | GI50 [3] [nM] | TGI [3] | GI50 [4] | TGI [4] [µM] | GI50 [5] [nM] | TGI [5] | GI50 [6] | TGI [6] | GI50 [7] [nM] | TGI [7] [µM] | GI50 [8] | TGI [8] [µM] | GI50 [9] | TGI [9] | GI50 [10] | TGI [10]
CCSc1ccc(C2C(Br)C(=O)N2c2cc(OC)c(OC)c(OC)c2)cc1 (configuration not stated) | 229 | > 100 | 103 nM | 0.74 µM | 431 | 15.8 µM | 440 nM | > 100 | 598 | > 100 µM | 361 nM | 4.37 µM | 278 | 18.2 | 158 nM | 4.19 | 392 nM | > 100 µM | – | –
CCC[CH2][Sn]1([CH2]CCC)[O]CC(C)[O]1 (configuration not stated) | – | – | 2600 nM | 4.68 µM | 2030 | 7.45 µM | 1320 nM | 2.64 | 9720 | 21.8 µM | 309 nM | 2.07 µM | 314 | 0.97 | 306 nM | 1.07 | 3560 nM | 10.4 µM | 1460 nM | 2.99 µM
CC(=O)[CH-]C(C)=O.CC(=O)[CH-]C(C)=O.CC[O-].CC[O-].[Ti+4] | – | – | – | – | > 100000 | > 100 µM | > 100000 nM | > 100 | > 100000 | > 100 µM | > 100000 nM | > 100 µM | > 100000 | > 100 | > 100000 nM | > 100 | > 100000 nM | > 100 µM | > 100000 nM | > 100 µM
CN(C)CC/C(=N\Nc1ccc(Cl)cc1Cl)c1ccccc1 | – | – | – | 30.1 µM | – | 30.7 µM | – | 30 | – | 29.6 µM | – | 17.1 µM | – | 31.2 | – | – | – | 24.8 µM | – | 20.6 µM
CNCCN=c1ccc2c3c1c(O)c1c(O)ccc(=O)c1c3[nH]n2CCNCCO | – | 1.41 | 102 nM and 405 nM | 1.14 µM and 5.15 µM | 900 | 3.36 µM and 11.5 µM | 30.8 nM and 110 nM | – | 27 | 4.65 µM and 4.57 µM | 129 nM and 294 nM | 5.04 µM and 12.4 µM | – | – | 194 nM and 627 nM | – | 137 nM and 162 nM | 3.25 µM and 5.72 µM | 744 nM and 173 nM | 2.54 µM and 1.25 µM
C/C=N\N1C(=O)c2ccccc2C1=O | – | – | – | > 100 µM | – | > 100 µM | – | > 100 | – | > 100 µM | – | > 100 µM | – | > 100 | – | – | – | – | – | > 100 µM
C[C@]12CCC(=O)C=C1CC[C@@H]1C2CC[C@]2(C)c3nn(-c4ccccc4)nc3CC12 (some centres not stated) | – | – | – | > 100 µM | – | > 100 µM | – | > 100 | – | > 100 µM | – | > 100 µM | – | > 100 | – | – | – | > 100 µM | – | > 100 µM
CC1(C)CC(N(C(=O)/C=C/c2ccc([N+](=O)[O-])o2)C2CCCCC2)CC(C)(C)N1 | – | – | – | 30.6 µM | – | 38.4 µM | – | 26.3 | – | 29.7 µM | – | 12.9 µM | – | 13.3 | – | 21.2 | – | 43.6 µM | – | –
CCN(CC)CCNC(=O)c1cccc2nc3ccccc3nc12 | – | – | – | 30.9 µM | – | 41.6 µM | – | > 100 | – | > 89.1 µM | – | > 100 µM | – | – | – | > 100 | – | > 100 µM | – | 28.2 µM
COc1cc2c3c(n(C)c(=O)c2cc1OC)-c1cc2c(cc1/C3=C\CCNCCCN)OCO2 | 2840 | 9.52 | – | – | 3040 | 13.4 µM | 1420 nM | 14.7 | 4530 | > 100 µM | – | – | 686 | 13.4 | 1670 nM | 25.5 | 2730 nM | 11.7 µM | 1060 nM | 14.5 µM
CN1C/C(=C\C=C\c2ccccc2)C(=O)/C(=C/C=C/c2ccccc2)C1 | – | – | – | > 100 µM | – | > 100 µM | – | > 100 | – | > 100 µM | – | > 100 µM | – | > 100 | – | > 100 | – | > 100 µM | – | > 100 µM
O=C1/C(=C/c2ccc(Br)cc2)CCC/C1=C\c1ccc(Br)cc1 | – | – | – | 16.1 µM | – | – | – | 46 | – | 35.3 µM | – | 5.26 µM | – | 24.4 | – | 39.2 | – | > 100 µM | – | 18.9 µM
N#CC1C=Cc2c(ccc3ccccc23)N1C(=O)c1ccccc1 (configuration not stated) | 1310 | – | 139 nM | 2.48 µM | 519 | > 100 µM | 524 nM | > 100 | 339 | > 100 µM | 390 nM | > 100 µM | 149 | > 69.9 | 27.4 nM | 0.0924 | 311 nM | 29.7 µM | – | –
O=[N+]([O-])c1ccc(C=NC23CC4CC(CC(C4)C2)C3)cc1 | – | – | – | > 100 µM | – | > 100 µM | – | > 100 | – | – | – | > 100 µM | – | > 100 | – | > 100 | – | > 100 µM | – | > 100 µM
O=C(O)c1cc2ccccc2c2c1C(=O)c1ccccc1-2 | – | > 100 | – | – | – | > 100 µM | – | > 100 | – | > 100 µM | – | > 100 µM | – | > 100 | – | > 100 | – | > 100 µM | – | > 100 µM
NNC(=O)C(=O)N/N=C(\CCC(=O)Nc1ccc(Cl)cc1)Cc1nc2ccccc2s1 | – | – | – | > 100 µM | – | > 100 µM | – | > 100 | – | > 100 µM | – | > 100 µM | – | 77.1 | – | 40.8 | – | > 100 µM | – | > 100 µM
O=C(CCCCC(=O)N/N=C\c1ccccc1O)N/N=C\c1ccccc1O | 15200 | > 100 | > 100000 nM | > 100 µM | > 100000 | > 100 µM | 5880 nM | > 100 | – | – | – | – | 1290 | > 100 | – | – | 5630 nM | > 100 µM | 3760 nM | > 100 µM
CN(C)C(=O)Oc1c(-c2ccccc2)c(=O)n2c3ccccc3n3c(=O)n(C)c(=O)c1c23 | – | – | – | > 100 µM | – | > 100 µM | – | > 100 | – | > 100 µM | – | > 100 µM | – | – | – | – | – | > 100 µM | – | > 100 µM
O=C(CCC(=O)C1CCC/C1=N/O)Nc1ccc(Cl)cc1 (configuration not stated) | – | – | – | > 100 µM | – | > 100 µM | – | > 100 | – | > 100 µM | – | > 100 µM | – | > 100 | – | > 100 | – | > 100 µM | – | –
O=C1c2ccccc2C(=O)c2[nH]c(Cc3ccc(F)cc3)nc21 | – | – | – | – | – | – | – | 51.3 | – | 38.1 µM | – | 95.8 µM | – | > 100 | – | 34.3 | – | – | – | 30.2 µM
